Experiment [1] has as its target Bcr/Abl fusion protein (Homo sapiens, UniProt P00519). Description: Inhibition of wild type Bcr-Abl (unknown origin) incubated for 1 hr in presence of ATP by ADP-Glo kinase assay. The experiment is classed as protein assay.
Experiment [2] addresses Bcr/Abl fusion protein (Homo sapiens, UniProt P00519, T315I). Description: Inhibition of Bcr-Abl T315I mutant (unknown origin) incubated for 1 hr in presence of ATP by ADP-Glo kinase assay. The experiment is classed as protein assay.
For another experiment, the system named is K-562R. Nature of the experiment: Antiproliferative activity against human K-562R cells expressing Bcr-Abl T315I mutant assessed as inhibition of cell growth incubated for 48 hrs by MTT assay. The experiment is classed as functional, cell-based.
In experiment [3] the test system is BaF3. Description: Antiproliferative activity against mouse BaF3 cells expressing wild type Bcr-Abl assessed as inhibition of cell growth incubated for 72 hrs by CellTiter-Glo luminescent assay. The following applies: BaF3, 72 h. The experiment is classed as functional, cell-based.
Experiment [4] concerns BaF3. Description: Antiproliferative activity against mouse BaF3 cells assessed as inhibition of cell growth incubated for 72 hrs by CellTiter-Glo luminescent assay. The following applies: BaF3, 72 h. The experiment is classed as functional, cell-based.
Experiment [5] has as its target Dual specificity tyrosine-phosphorylation-regulated kinase 1B (Homo sapiens) (UniProt Q9Y463). Nature of the experiment: Inhibition of recombinant human DYRK1B at 10 uM for 10 mins followed by substrate addition in presence of ATP and measured after 100 mins by ADP-Glo kinase assay. The following applies: time 110.0 min.
Experiment [6] addresses Tyrosine-protein kinase receptor UFO (Homo sapiens) (UniProt P30530). Description: Inhibition of recombinant human AXL at 10 uM for 10 mins followed by substrate addition in presence of ATP and measured after 60 mins by HTRF assay. The following applies: time 70.0 min.
Experiment [7] has the same target. Description: Inhibition of recombinant human AXL at 10 uM for 10 mins followed by substrate addition in presence of ATP and measured after 100 mins by ADP-Glo kinase assay. The following applies: time 110.0 min.
In experiment [8] the target is BDNF/NT-3 growth factors receptor (Homo sapiens) (UniProt Q16620). Description: Inhibition of recombinant human TRKB at 10 uM for 10 mins followed by substrate addition in presence of ATP and measured after 100 mins by ADP-Glo kinase assay. The following applies: time 110.0 min.
Sequence of BDNF/NT-3 growth factors receptor (Homo sapiens) (Q16620 32-822 limits assumed): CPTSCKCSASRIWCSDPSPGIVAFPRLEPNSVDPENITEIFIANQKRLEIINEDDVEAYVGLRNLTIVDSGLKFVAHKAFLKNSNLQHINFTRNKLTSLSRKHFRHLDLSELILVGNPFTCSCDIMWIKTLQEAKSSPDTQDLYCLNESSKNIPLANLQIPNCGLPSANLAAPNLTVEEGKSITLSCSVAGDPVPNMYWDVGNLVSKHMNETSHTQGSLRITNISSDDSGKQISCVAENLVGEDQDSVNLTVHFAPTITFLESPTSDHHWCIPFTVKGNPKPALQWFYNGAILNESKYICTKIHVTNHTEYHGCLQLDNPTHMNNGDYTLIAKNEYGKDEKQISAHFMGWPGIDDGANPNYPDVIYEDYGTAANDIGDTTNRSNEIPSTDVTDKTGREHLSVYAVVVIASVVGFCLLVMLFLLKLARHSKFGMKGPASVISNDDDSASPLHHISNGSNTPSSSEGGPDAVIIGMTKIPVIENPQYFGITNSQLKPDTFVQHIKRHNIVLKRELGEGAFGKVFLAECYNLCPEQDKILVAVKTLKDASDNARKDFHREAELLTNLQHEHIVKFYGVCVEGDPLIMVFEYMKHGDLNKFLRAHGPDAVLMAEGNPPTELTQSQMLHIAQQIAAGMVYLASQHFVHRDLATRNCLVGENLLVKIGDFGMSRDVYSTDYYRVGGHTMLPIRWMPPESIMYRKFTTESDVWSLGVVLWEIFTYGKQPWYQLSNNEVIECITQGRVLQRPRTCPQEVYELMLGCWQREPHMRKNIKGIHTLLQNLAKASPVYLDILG
Experiment [9] addresses Vascular endothelial growth factor receptor 2 (Homo sapiens) (UniProt P35968). Description: Inhibition of recombinant human KDR at 10 uM for 10 mins followed by substrate addition in presence of ATP and measured after 60 mins by HTRF assay. The following applies: time 70.0 min.
Experiment [10] deals with Dual specificity protein kinase CLK1 (Homo sapiens) (UniProt P49759). Description: Inhibition of recombinant human CLK1 at 10 uM for 10 mins followed by substrate addition in presence of ATP and measured after 60 mins by HTRF assay. The following applies: time 70.0 min.
Sequence of Dual specificity protein kinase CLK1 (Homo sapiens) (P49759 whole entry, looked up): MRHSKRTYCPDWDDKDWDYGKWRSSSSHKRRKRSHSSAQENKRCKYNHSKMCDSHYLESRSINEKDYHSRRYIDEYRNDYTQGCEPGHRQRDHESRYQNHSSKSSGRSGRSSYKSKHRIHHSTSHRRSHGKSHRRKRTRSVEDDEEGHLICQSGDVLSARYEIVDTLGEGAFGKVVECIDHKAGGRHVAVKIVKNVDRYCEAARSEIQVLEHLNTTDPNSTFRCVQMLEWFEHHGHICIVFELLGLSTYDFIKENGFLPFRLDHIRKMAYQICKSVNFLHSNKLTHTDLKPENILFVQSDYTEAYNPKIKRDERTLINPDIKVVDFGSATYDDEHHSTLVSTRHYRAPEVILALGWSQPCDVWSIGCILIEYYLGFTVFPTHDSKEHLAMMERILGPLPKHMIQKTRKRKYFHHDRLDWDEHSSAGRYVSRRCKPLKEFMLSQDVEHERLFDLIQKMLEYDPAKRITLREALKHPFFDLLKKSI
Experiment [11] deals with T1, Tyrosine-protein kinase ITK/TSK (Homo sapiens) (UniProt Q08881).
T1 sequence (whole entry): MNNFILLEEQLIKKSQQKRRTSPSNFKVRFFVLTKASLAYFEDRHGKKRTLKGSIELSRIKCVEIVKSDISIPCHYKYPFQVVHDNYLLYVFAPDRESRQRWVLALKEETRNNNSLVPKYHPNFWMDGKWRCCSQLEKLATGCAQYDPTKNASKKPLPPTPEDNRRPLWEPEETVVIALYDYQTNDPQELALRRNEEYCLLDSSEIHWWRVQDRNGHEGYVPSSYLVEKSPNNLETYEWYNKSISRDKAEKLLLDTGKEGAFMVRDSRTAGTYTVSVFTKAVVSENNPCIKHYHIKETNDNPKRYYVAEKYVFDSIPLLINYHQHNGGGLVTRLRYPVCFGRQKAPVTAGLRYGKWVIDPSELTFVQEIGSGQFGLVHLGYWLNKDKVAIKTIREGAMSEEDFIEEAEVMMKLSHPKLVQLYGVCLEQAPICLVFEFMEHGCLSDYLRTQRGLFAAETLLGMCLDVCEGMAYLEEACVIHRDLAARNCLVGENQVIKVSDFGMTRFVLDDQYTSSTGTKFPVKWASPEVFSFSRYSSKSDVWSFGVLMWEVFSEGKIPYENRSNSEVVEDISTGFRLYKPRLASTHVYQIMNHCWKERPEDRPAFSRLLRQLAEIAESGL
Description: Inhibition of recombinant human ITK at 10 uM for 10 mins followed by substrate addition in presence of ATP and measured after 100 mins by ADP-Glo kinase assay. The following applies: time 110.0 min.

Experiment [12] has as its system K562. Description: Induction of apoptosis in human K562 cells assessed as necrotic cells at 5 uM incubated for 48 hrs by Annexin V-FITC/PI staining based flow cytometry analysis (Rvb= 0.09%). The experiment is classed as functional.
In experiment [13] the test system is K562. Description: Induction of apoptosis in human K562 cells assessed as early apoptotic cells at 1 uM incubated for 48 hrs by Annexin V-FITC/PI staining based flow cytometry analysis (Rvb= 4.35%). The experiment is classed as functional.
In experiment [14] the test system is K562. Description: Induction of apoptosis in human K562 cells assessed as early apoptotic cells at 10 uM incubated for 48 hrs by Annexin V-FITC/PI staining based flow cytometry analysis (Rvb= 4.35%). The experiment is classed as functional.
The subject of experiment [15] is K562. Description: Induction of apoptosis in human K562 cells assessed as late apoptotic cells at 10 uM incubated for 48 hrs by Annexin V-FITC/PI staining based flow cytometry analysis (Rvb= 14.66%). The experiment is classed as functional.
The target of experiment [16] is T2, Signal transducer and activator of transcription 5A (Homo sapiens) (UniProt P42229).
T2 sequence (whole entry): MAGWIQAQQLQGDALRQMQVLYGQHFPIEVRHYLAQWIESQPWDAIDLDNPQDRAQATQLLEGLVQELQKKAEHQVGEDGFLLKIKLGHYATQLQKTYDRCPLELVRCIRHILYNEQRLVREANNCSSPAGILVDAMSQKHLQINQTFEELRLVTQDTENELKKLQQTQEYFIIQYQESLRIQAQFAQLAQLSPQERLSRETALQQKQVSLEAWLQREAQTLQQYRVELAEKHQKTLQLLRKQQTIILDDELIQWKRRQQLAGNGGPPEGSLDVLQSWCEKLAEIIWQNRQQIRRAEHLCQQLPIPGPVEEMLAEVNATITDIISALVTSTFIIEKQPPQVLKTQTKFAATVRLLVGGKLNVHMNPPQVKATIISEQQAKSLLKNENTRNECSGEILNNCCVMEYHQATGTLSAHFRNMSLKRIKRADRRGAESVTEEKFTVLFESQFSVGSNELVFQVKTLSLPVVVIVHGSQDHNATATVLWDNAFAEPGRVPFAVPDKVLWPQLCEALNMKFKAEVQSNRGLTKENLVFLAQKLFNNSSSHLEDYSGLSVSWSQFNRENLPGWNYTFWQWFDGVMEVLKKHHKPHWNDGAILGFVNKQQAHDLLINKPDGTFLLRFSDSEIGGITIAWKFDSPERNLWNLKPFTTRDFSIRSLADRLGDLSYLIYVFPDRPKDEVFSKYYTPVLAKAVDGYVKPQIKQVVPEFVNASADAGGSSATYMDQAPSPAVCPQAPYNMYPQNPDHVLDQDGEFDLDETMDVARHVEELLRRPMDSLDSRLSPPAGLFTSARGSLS
Description: Inhibition of STAT5 phosphorylation at Tyr694 residue in human K562 cells expressing wild type Bcr-Abl at 0.1 to 15 uM measured after 48 hrs by Western blot analysis. The experiment is classed as cell-based. The following applies: dose 0.1-15 µM, DDE = dose-dependent effect.

Sequence of Tyrosine-protein kinase receptor UFO (Homo sapiens) (P30530 whole entry): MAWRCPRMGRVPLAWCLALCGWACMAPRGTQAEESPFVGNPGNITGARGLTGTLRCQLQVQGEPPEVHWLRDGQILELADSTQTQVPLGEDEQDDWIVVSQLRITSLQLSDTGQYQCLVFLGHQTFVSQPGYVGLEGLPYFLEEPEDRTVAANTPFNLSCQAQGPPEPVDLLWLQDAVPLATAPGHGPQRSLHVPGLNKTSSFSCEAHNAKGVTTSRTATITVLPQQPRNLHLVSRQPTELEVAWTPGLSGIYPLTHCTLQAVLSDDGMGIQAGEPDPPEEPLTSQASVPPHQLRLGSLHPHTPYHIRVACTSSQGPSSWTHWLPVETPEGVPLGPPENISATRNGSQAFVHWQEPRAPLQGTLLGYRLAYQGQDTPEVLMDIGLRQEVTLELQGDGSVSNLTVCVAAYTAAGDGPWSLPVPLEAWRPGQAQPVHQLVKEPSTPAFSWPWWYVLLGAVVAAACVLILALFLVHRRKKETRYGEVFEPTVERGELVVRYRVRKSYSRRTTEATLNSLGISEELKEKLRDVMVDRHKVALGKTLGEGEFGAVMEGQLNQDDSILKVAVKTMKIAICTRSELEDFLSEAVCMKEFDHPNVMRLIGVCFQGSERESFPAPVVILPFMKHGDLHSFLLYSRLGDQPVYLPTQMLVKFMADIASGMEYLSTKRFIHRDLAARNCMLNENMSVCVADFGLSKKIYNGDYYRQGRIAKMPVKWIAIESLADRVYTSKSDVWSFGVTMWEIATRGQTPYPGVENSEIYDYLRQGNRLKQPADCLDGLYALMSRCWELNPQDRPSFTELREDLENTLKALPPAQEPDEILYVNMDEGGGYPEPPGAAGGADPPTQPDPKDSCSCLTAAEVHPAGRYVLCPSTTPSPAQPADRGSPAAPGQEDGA
Sequence of Dual specificity tyrosine-phosphorylation-regulated kinase 1B (Homo sapiens) (Q9Y463 whole entry, looked up): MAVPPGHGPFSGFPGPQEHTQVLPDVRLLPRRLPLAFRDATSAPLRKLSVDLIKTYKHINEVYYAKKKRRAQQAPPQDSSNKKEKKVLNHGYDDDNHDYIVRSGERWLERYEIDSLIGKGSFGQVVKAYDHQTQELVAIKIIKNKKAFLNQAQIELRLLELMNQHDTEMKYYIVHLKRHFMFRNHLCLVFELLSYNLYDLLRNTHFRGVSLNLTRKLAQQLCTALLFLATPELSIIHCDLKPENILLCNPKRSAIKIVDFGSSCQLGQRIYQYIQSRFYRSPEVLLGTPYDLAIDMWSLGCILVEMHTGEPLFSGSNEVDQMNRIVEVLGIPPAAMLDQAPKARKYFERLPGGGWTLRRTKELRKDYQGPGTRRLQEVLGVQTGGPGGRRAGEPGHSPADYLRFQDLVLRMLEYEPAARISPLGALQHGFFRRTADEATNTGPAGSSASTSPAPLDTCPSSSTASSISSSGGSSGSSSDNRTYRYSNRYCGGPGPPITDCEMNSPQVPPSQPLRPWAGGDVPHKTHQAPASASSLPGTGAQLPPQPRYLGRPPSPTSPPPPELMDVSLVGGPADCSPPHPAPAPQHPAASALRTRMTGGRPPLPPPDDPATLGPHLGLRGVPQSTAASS
Sequence of Vascular endothelial growth factor receptor 2 (Homo sapiens) (P35968 whole entry): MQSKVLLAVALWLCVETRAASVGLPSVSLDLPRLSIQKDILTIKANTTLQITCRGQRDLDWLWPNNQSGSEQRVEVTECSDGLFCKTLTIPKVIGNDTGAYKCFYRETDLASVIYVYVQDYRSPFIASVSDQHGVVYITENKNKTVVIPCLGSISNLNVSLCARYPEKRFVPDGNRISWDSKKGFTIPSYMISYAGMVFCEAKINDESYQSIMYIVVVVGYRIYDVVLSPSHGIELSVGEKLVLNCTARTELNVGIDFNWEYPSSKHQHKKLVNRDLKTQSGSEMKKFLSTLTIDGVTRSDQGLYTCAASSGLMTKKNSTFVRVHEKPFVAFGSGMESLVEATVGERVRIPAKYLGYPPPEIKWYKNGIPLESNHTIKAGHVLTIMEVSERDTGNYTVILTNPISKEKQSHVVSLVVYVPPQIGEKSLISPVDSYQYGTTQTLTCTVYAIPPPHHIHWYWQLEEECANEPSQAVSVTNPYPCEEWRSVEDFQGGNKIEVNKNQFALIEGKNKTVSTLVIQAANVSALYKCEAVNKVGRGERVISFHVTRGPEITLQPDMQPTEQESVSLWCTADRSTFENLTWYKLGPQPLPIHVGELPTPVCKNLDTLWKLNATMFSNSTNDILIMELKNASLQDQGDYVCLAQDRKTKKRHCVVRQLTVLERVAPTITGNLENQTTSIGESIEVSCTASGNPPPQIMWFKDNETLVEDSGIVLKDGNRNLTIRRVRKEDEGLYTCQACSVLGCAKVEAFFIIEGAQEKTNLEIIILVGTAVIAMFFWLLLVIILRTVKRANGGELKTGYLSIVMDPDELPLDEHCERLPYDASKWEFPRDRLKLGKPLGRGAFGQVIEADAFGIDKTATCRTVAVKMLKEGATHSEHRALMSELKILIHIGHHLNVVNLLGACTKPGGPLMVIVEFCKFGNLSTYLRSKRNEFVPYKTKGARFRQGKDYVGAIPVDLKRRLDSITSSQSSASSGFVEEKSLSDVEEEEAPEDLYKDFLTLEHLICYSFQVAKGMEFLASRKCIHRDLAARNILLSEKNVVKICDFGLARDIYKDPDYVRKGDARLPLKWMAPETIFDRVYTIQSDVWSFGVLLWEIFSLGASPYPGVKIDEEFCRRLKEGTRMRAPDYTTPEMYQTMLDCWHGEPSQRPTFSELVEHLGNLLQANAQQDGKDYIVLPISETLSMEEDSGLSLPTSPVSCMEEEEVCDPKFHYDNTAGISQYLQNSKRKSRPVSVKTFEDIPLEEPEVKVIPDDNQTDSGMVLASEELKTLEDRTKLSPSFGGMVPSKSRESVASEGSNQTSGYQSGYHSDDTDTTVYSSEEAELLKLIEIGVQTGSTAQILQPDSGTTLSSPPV

As to `O=C(Nc1nc2ccc(-c3cn([C@@H]4CN[C@H](C(=O)Nc5ccc(Cl)cc5Cl)C4)nn3)nc2s1)C1CC1`, the 50% inhibitory concentration (IC50) at Bcr/Abl fusion protein [1] was 0.6 nM; at Bcr/Abl fusion protein [2], 190 nM; in the experiment with K-562R it was 1910 nM; with BaF3 [3], 130 nM; in the experiment on BaF3 [4], over 20000 nM. For the same compound, the inhibition came to 68.4% in experiment [5]; 56.4% in experiment [6]; 56.4% in experiment [7]; 54.3% in experiment [8]; 47.7% in [9]; 44.2% in [10]. Moreover, the figures for the inhibition in experiment [11] and in experiment [16] were 41.1% and “Dde”, respectively. Besides, the Activity in the experiment on K562 [12] came to 0.03%; in the experiment with K562 [13], 3.59%; in the experiment on K562 [14], 7.16%; in the experiment on K562 [15], 43.12%.
